Results reported in article PMC5796995 (Oncotarget, 2017).

Experiments:
HepaRG cells [1] = format: cell-based, human
HepaRG cells [2] = format: cell-based, human; remark: listed apart in the source
[3] = tested on: hepatic microsomal enzymes; format: in vitro ADME, rat
plasma proteins = format: in vitro ADME; settings: human
[4] = tested on: Salmonella typhimurium (TA100); format: cell-based
HepG2 cells [5] = format: cell-based, human
HepG2 cells [6] = format: cell-based, human; remark: listed apart in the source
calf thymus DNA = format: biochemical
Caco-2 monolayers = format: in vitro ADME
Protocol: Assay plates containing 12 wells of 21-day Caco-2 monolayers were provided by MB Biosciences. Monolayer integrity was verified using transepithelial electrical resistance measurements (TEER) prior to assay. Treatment solutions of AFB1, AFB2a, and AFB2a-Arg were prepared in the provided Hank's buffered salt solution (HBSS) with a pH of 7.4 and a final DMSO concentration of 0.2%. Caco-2 monolayers were first rinsed with HBSS and then the apical chamber was filled with 500 μL of test compound solution while the basal chamber was filled with 1500 μL of blank HBSS (both chambers were kept at pH 7.4). Plates were incubated at 37°C for 2 hours to allow compound equilibration. Compound concentration was measured at t = 0 hrs and t = 2 hours by HPLC-MS. Permeability (Papp) was calculated as follows: Papp=dQ/dt×1/A×C0
Where dQ/dt is the amount of translocated material over incubation time (nmol/s), A is the area of the insert (cm^2), and C0 is the initial concentration of the test compound applied. […] ER was calculated as follows: ER=Papp(Basal→Apical)/Papp(Apical→Basal)

[7] = format: physicochemical; settings: pH 7
Protocol: Individual standards of AFB1, AFB2a, and AFB2a-Arg were prepared in deionized water (pH 7) at a concentration of 300 ng/mL each. Aliquots of 300 μL of each aqueous standard were added to 300 μL of 1-octanol. Solutions were shaken at 1800 rpm for 5 min and then allowed to equilibrate for an additional 30 minutes. Aqueous and organic layers for each sample were separated and analyzed by HPLC-MS. Octanol-water partition coefficients (P) were calculated as follows: P=[Peak area in octanol fraction]/[Peak area in aqueous fraction]

Row | SMILES | number of micronuclei (HepaRG cells [1]) | concentrations that significantly reduced the percentage of viable cells (HepaRG cells [2]) | degraded by hepatic microsomal enzymes [3] | plasma protein bound (plasma proteins) [%] | number of revertant wells (mutagenic response) [4] | concentrations that significantly reduced the percentage of viable cells (HepG2 cells [5]) | number of micronuclei (HepG2 cells [6]) | DNA adduct formation (calf thymus DNA) | concentrations without increase in micronuclei formation (HepaRG cells [1]) [µM] | efflux ratio, comparison (Caco-2 monolayers) | intestinal permeability (Papp), comparison (Caco-2 monolayers; pH 7.4) | octanol-water partition coefficient [7] | concentrations without increase in micronuclei formation (HepG2 cells [6]) [µM]
1 | COc1cc2c(c3oc(=O)c4c(c13)CCC4=O)C1C=COC1O2 (stereo not drawn) [AFB1, aflatoxin B1, reference compound] | significant increase in the number of micronuclei | > 3.75 µM | approximately 75% | 82 | significant increase in the number of revertant wells | > 7.5 µM | significant increase in the number of micronuclei | presence of DNA adduction |  |  |  |  | 
2 | COc1cc(O)c(-c2ccn(C(CCCNC(=N)N)C(=O)O)c2)c2oc(=O)c3c(c12)CCC3=O (stereo not drawn) [AFB2a-Arg, aflatoxin B2a-arginine] | did not show this genotoxic marker | no significant decreases in cell viability | not significantly degraded | 99 | did not show any significant differences from the vehicle | no significant decreases in cell viability | did not show this genotoxic marker | no additional peaks were discovered | ≤ 60 | significantly higher efflux ratio than AFB1 | significantly lower than AFB1 | lower partition coefficient than AFB1 or AFB2a | ≤ 60
